Experimental data as given in patent US20250382305A1 (PTC THERAPEUTICS, INC., priority 2022, published 2025).

Assays:
[1] = system: Total ATXN3 (tATXN3) protein; test: Endogenous Total ATXN3 (tATXN3) Protein Assay (MSD immunoassay of cell lysates); assay type: cell-based; settings: average IC50, total ATXN3 protein in cell lysate after 48 h with compound (Table 1)
How it was run: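 By electrochemiluminescent MSD sandwich immunoassay (mouse monoclonal capture, rabbit monoclonal and SULFO-TAG anti-rabbit detection), endogenous ATXN3 was quantified in lysates of cells treated 48 h at 37° C at 10,000 cells/well. Treatment used a 7-point 3.16-fold duplicate dilution series, with average IC50 grouped into star categories.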

[2] = system: ATXN3 pre-mRNA; test: RT-qPCR Assay to Quantify Exon 4 Skipping in ATXN3 pre-mRNA in Cells; assay type: cell-based; settings: percent exon 4 skipping in ATXN3 pre-mRNA, RT-qPCR of cell lysates; average IC50
How it was run: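 IC50 derives from a dose-response fit of percent exon 4 skipping, quantified by RT-qPCR on crude lysates. Compounds tested as 7-point 3.16-fold dilutions in duplicate; cells (10,000/well) were exposed for 24 h at 37 °C before lysis.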

Compound	IC50 [1]	IC50 [2]
N[C@@H]1CCCO[C@H]1c1sc2c(NCc3ccccc3F)cc(Cl)nc2c1Br.N[C@H]1CCCO[C@@H]1c1sc2c(NCc3ccccc3F)cc(Cl)nc2c1Br (mixture of isomers) [Compound 29, 2-((2R,3R)-3-aminotetrahydro-2H-pyran-2-yl)-3-bromo-5-chloro-N-(2-fluorobenzyl)thieno[3,2-b]pyridin-7-amine and 2-((2S,3S)-3-aminotetrahydro-2H-pyran-2-yl)-3-bromo-5-chloro-N-(2-fluorobenzyl)thieno[3,2-b]pyridin-7-amine]	30 to 300 nM	30 to 300 nM
N[C@@H]1CCCN[C@H]1c1sc2c(NCc3cccs3)cc(Cl)nc2c1Br.N[C@H]1CCCN[C@@H]1c1sc2c(NCc3cccs3)cc(Cl)nc2c1Br (mixture of isomers) [Compound 47, 2-((2R,3R)-3-aminopiperidin-2-yl)-3-bromo-5-chloro-N-(thiophen-2-ylmethyl)thieno[3,2-b]pyridin-7-amine and 2-((2S,3S)-3-aminopiperidin-2-yl)-3-bromo-5-chloro-N-(thiophen-2-ylmethyl)thieno[3,2-b]pyridin-7-amine]	> 1000 nM	300 to 1000 nM
N[C@@H]1[C@@H](O)C=CC[C@H]1c1sc2c(NCc3cccs3)cc(Cl)nc2c1Cl.N[C@H]1[C@H](O)C=CC[C@@H]1c1sc2c(NCc3cccs3)cc(Cl)nc2c1Cl (mixture of isomers) [Compound 127, (1R,5S,6R)-6-amino-5-(3,5-dichloro-7-((thiophen-2-ylmethyl)amino)thieno[3,2-b]pyridin-2-yl)cyclohex-2-en-1-ol and (1S,5R,6S)-6-amino-5-(3,5-dichloro-7-((thiophen-2-ylmethyl)amino)thieno[3,2-b]pyridin-2-yl)cyclohex-2-en-1-ol]	30 to 300 nM	30 to 300 nM
N[C@@H]1CCNCC[C@H]1c1sc2c(NCc3cccs3)cc(Cl)nc2c1Br.N[C@H]1CCNCC[C@@H]1c1sc2c(NCc3cccs3)cc(Cl)nc2c1Br (mixture of isomers) [Compound 147, 2-((4R,5R)-5-aminoazepan-4-yl)-3-bromo-5-chloro-N-(thiophen-2-ylmethyl)thieno[3,2-b]pyridin-7-amine and 2-((4S,5S)-5-aminoazepan-4-yl)-3-bromo-5-chloro-N-(thiophen-2-ylmethyl)thieno[3,2-b]pyridin-7-amine]	> 1000 nM	> 1000 nM

Other lines, results leading:

IC50 [1]	IC50 [2]	Compound
30 to 300 nM	30 to 300 nM	NC1CCCOC1c1sc2c(NCc3ccccc3F)cc(Cl)nc2c1Cl (mixture of isomers) [Compound 24, 2-((2R,3R)-3-aminotetrahydro-2H-pyran-2-yl)-3,5-dichloro-N-(2-fluorobenzyl)thieno[3,2-b]pyridin-7-amine and 2-((2S,3S)-3-aminotetrahydro-2H-pyran-2-yl)-3,5-dichloro-N-(2-fluorobenzyl)thieno[3,2-b]pyridin-7-amine]
> 1000 nM	> 1000 nM	N[C@@H]1CC(F)(F)CC[C@@H]1c1sc2c(NCc3cccs3)cc(Cl)nc2c1Br.N[C@H]1CC(F)(F)CC[C@H]1c1sc2c(NCc3cccs3)cc(Cl)nc2c1Br (mixture of isomers) [Compound 30, 2-((1R,2S)-2-amino-4,4-difluorocyclohexyl)-3-bromo-5-chloro-N-(thiophen-2-ylmethyl)thieno[3,2-b]pyridin-7-amine and 2-((1S,2R)-2-amino-4,4-difluorocyclohexyl)-3-bromo-5-chloro-N-(thiophen-2-ylmethyl)thieno[3,2-b]pyridin-7-amine]
> 1000 nM	> 1000 nM	N[C@H]1CCCN(c2ccccc2)[C@@H]1c1sc2c(NCc3cccs3)cc(Cl)nc2c1Br (mixture of isomers) [Compound 124, 2-((2R,3R)-3-amino-1-phenylpiperidin-2-yl)-3-bromo-5-chloro-N-(thiophen-2-ylmethyl)thieno[3,2-b]pyridin-7-amine and 2-((2S,3S)-3-amino-1-phenylpiperidin-2-yl)-3-bromo-5-chloro-N-(thiophen-2-ylmethyl)thieno[3,2-b]pyridin-7-amine]
